Results: patent US20050238577A1, “Isolation of epithelial cells or their biochemical contents from excreta after in vivo isotopic labeling” (The Regents of the University of California, priority 2004, published 2005)

Experiment: Tolerability of maintained 2H2O body water enrichment
Type: in vivo
Settings: 1-10% of total body water labeled, maintained for weeks or months in humans (>100 people) and experimental animals; rapid changes in enrichment prevented
Text: Relatively high body water enrichments of ^2H2O (e.g., 1-10% of the total body water is labeled) may be achieved relatively inexpensively using the techniques of the invention. […] This finding in a large number of human subjects (>100 people) is contrary to previous concerns about vestibular toxicities at high doses of ^2H2O. The Applicant has discovered that as long as rapid changes in body water enrichment are prevented (e.g., by initial administration in small, divided doses), high body water enrichments of ^2H2O can be maintained with no toxicities. For example, the low expense of commercially available ^2H2O allows long-term maintenance of enrichments in the 1-5% range at relatively low expense (e.g., calculations reveal a lower cost for 2 months labeling at 2% ^2H2O enrichment, and thus 7-8% enrichment in the alanine precursor pool, than for 12 hours labeling of ^2H-leucine at 10% free leucine enrichment, and thus 7-8% enrichment in leucine precursor pool for that period).

Structure (SMILES): [2H]O[2H] [^2H2O, deuterated water]
- toxicity at maintained body water enrichment: without any evidence of toxicity
